From ChEMBL document CHEMBL1129789, “Dopamine D3 and D4 receptor antagonists: synthesis and structure--activity relationships of (S)-(+)-N-(1-Benzyl-3-pyrrolidinyl)-5-chloro-4- [(cyclopropylcarbonyl) amino]-2-methoxybenzamide (YM-43611) and related compounds” (J Med Chem, 1996)

Assays:
[1] = test system: Mus musculus; assay: Compound was tested for inhibition of Apomorphine induced climbing in Mice on subcutaneous administration; assay type: functional; conditions: sc
[2] = molecular target: T1, D(4) dopamine receptor (Homo sapiens, UniProt P21917); assay: biochemical
T1 sequence (P21917 whole entry): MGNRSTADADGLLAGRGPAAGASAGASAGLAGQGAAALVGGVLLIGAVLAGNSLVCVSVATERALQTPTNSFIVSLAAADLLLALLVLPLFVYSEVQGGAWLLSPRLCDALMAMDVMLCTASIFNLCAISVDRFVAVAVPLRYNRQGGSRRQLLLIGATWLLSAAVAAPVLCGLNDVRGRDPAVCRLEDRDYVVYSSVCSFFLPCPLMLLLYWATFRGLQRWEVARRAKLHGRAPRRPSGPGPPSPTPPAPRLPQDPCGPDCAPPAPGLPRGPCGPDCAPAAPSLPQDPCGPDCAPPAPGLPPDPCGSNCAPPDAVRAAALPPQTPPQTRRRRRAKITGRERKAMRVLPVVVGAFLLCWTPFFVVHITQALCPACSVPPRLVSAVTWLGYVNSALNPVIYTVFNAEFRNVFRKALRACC

[3] = molecular target: D(3) dopamine receptor (Rattus norvegicus, UniProt P19020); assay: biochemical
Chain of D(3) dopamine receptor (P19020 whole entry): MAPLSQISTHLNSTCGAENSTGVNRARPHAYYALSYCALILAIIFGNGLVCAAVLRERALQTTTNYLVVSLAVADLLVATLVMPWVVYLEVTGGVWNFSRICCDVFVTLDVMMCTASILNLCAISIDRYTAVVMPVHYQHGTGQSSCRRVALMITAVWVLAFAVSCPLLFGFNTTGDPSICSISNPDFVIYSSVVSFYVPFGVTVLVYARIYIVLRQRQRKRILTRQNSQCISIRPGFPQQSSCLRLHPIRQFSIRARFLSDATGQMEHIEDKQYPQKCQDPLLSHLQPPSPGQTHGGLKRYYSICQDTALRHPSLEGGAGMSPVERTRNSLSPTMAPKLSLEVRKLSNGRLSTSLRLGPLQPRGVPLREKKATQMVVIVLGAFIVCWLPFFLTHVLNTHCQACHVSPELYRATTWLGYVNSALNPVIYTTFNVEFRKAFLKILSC
Description: Binding affinity to rat Dopamine receptor D3 expressed in CHO cells was determined using [125 I] iodosulpride as radioligand

[4] = test system: Mus musculus; assay: Inhibition of Apomorphine induced climbing in mice administered sc; assay type: functional
[5] = organism: Mus musculus; assay: Compound was tested for inhibition of Apomorphine induced climbing in Mice; assay type: functional
[6] = molecular target: Adrenergic receptor beta (Rattus norvegicus, UniProt P18090+P10608+P26255); assay: Compound was tested for the binding affinity against rat cortical Beta adrenergic receptor by Radio ligand [3H]dihydroalprenolol binding assay.; assay type: protein assay

Ki [2] | Ki [3] | Ki [6] | Structure (SMILES) | ED50 [1] | ED50 [4] | ED50 [5]
5.2 nM | 36 nM |  | COc1cc(NC(=O)C2CCC2)c(Cl)cc1C(=O)N[C@H]1CCN(Cc2ccccc2)C1 | 0.14 mg/kg |  | 
7 nM | 100 nM |  | COc1cc(NC(=O)C2CCC2)c(Cl)cc1C(=O)N[C@@H]1CCN(Cc2ccccc2)C1 |  |  | 
5.6 nM | 60 nM |  | COc1cc(NC(=O)C2CC2)c(Cl)cc1C(=O)N[C@@H]1CCN(Cc2ccccc2)C1 | 0.45 mg/kg |  | 
0.67 nM | 0.24 nM |  | CNc1cc(OC)c(C(=O)N[C@H]2CCN(C3C4CCCC3CCC4)C2)cc1Cl (stereo partly drawn) |  |  | 
 | 1.9 nM |  | COc1cc(N)c(Cl)cc1C(=O)N[C@@H]1CCN(Cc2ccccc2)C1 |  |  | 
 | 0.58 nM |  | COc1cc(N)c(Cl)cc1C(=O)N[C@H]1CCN(Cc2ccccc2)C1 |  | 0.071 mg/kg | 
1.9 nM | 5.1 nM |  | COc1cc(NC(=O)C(F)(F)F)c(Cl)cc1C(=O)N[C@H]1CCN(Cc2ccccc2)C1 |  |  | 
87 nM | 200 nM |  | COc1cc(NC(=O)c2ccccc2)c(Cl)cc1C(=O)N[C@H]1CCN(Cc2ccccc2)C1 |  |  | 
3.4 nM | 33 nM |  | COc1cc(NC(=O)C2CC2)c(Cl)cc1C(=O)N[C@H]1CCN(CCc2ccccc2)C1 |  |  | 
20 nM | 55 nM |  | COc1cc(NC(=O)C2CCCC2)c(Cl)cc1C(=O)N[C@H]1CCN(Cc2ccccc2)C1 | 0.28 mg/kg |  | 
1.3 nM | 4.7 nM |  | C=CC(=O)Nc1cc(OC)c(C(=O)N[C@H]2CCN(Cc3ccccc3)C2)cc1Cl |  |  | 
2.7 nM | 1.5 nM |  | COc1cc(NC(=O)C2CC2)c(Cl)cc1C(=O)N[C@H]1CCN(C2CCCCCC2)C1 |  |  | 
3 nM | 15 nM |  | COc1cc(NC(=O)C(C)C)c(Cl)cc1C(=O)N[C@H]1CCN(Cc2ccccc2)C1 |  |  | 
1.5 nM | 5.9 nM |  | CCC(=O)Nc1cc(OC)c(C(=O)N[C@H]2CCN(Cc3ccccc3)C2)cc1Cl | 0.31 mg/kg |  | 
18 nM | 150 nM |  | COc1cc(NC(=O)C2CCCC2)c(Cl)cc1C(=O)N[C@@H]1CCN(Cc2ccccc2)C1 |  |  | 
110 nM | 200 nM |  | COc1cc(NC(=O)C2CCCCC2)c(Cl)cc1C(=O)N[C@H]1CCN(Cc2ccccc2)C1 |  |  | 
2.1 nM | 4.4 nM |  | COc1cc(NC(=O)C2CC2)c(Cl)cc1C(=O)N[C@H]1CCN(C2CCCCC2)C1 | 1.4 mg/kg |  | 
2200 nM | 3000 nM |  | COc1cc(NC(=O)C2CC2)c(Cl)cc1C(=O)N[C@H]1CCNC1 | > 30 mg/kg |  | 
 |  |  | CN1CCN(C2=Nc3cc(Cl)ccc3Nc3ccccc32)CC1 [CLOZAPINE] |  |  | 6.8 mg/kg
 |  | > 10000 nM | O=C(CCCN1CCC(O)(c2ccc(Cl)cc2)CC1)c1ccc(F)cc1 [HALOPERIDOL] |  |  | 0.041 mg/kg
 |  |  | CNc1cc(OC)c(C(=O)N[C@H]2CCN(Cc3ccccc3)[C@H]2C)cc1Cl [NEMONAPRIDE] | 0.012 mg/kg |  | 

Structure (SMILES) | Ki [2] | Ki [3] | Ki [6] | ED50 [1] | ED50 [4] | ED50 [5]
COc1cc(NC(=O)C2CC2)c(Cl)cc1C(=O)N[C@H]1CCN(C2C3CC4CC(C3)CC2C4)C1 (stereo partly drawn) | 4.4 nM | 1.7 nM |  | > 10 mg/kg |  | 
COc1cc(NC(=O)C2CC2)c(Cl)cc1C(=O)N[C@H]1CCN(C2C3CCCC2CCC3)C1 (stereo partly drawn) | 3.8 nM | 2.2 nM |  | > 10 mg/kg |  | 
COc1cc(NC(=O)C2CC2)c(Cl)cc1C(=O)N[C@H]1CCN(CC2CCCCC2)C1 | 3.3 nM | 3.7 nM |  |  |  | 
